Source: patent US20020025944A1, “Use of clioquinol for the therapy of Alzheimer's disease” (priority 2000, published 2002)
Like-named read-outs stand apart in the source and are kept apart here.

What was measured:
[1] = dissolving clioquinol: n-decane / PBS partitioning; type: physicochemical
Method: In order to obtain a solution of clioquinol in PBS, the following protocol was followed: 5.3 grams of clioquinol was suspended with agitation in 200 milliliter of n-decane. […] Next, the phases were allowed to separate. The lower phase ([…]) was collected and filtered to remove the residue which had formed at the phase interface upon extraction with the organic solvent. […] This number was arrived at based on two assumptions: (1) 2% of the clioquinol was dissolved in the n-decane; and (2) the partitioning coefficient is 1/1750 with PBS at 1:1 mixture of n-decane to […].

Aβ 1-40 aggregates = Aβ 1-40 aggregates (Homo sapiens, UniProt P05067); assay: resolubilization of metal- or pH-induced Aβ aggregates on 0.2μ nylon membrane; type: biochemical; settings: 2 μM chelator in TBS, relative to TBS alone
Method: Aggregates were transferred to a 0.2μ nylon membrane by filtration. The aggregates were then washed (200 μl/well) with TBS alone, TBS containing 2 μM EDTA, or TBS containing 2 μM clioquinol. The membrane was fixed, probed with the anti-Aβ monoclonal antibody 6E10, and developed for exposure to ECL-film. […] Values are expressed as a percentage of Aβ signal after washing with TBS alone.
First, the efficacy of clioquinol's ability to resolubilize Aβ aggregates, formed in vitro by the action of Cu(II) or Zn(II) upon Aβ 1-40, was examined. […] Aβ (10 ng/well in buffered saline) aggregation was induced by addition of ZnCl2 (5 μM) or acidic conditions (pH 5.5). Aggregates were transferred to a 0.2μ nylon membrane by filtration. The aggregates were then washed (200 μl/well) with TBS alone, TBS containing 2 μM EDTA or TBS with 2 μM clioquinol. The membrane was then fixed, probed with anti-Aβ monoclonal antibody 6E10 and developed for exposure to ECL-film.
Values are expressed as a % of Aβ signal remaining on the filter after washing with TBS alone.

[2] = tested on: Aβ deposits from AD-affected brain; assay: extraction of Aβ from post-mortem AD-affected brain tissue, western blot; type: biochemical, human
Source text: To test this hypothesis, the brain tissue preparation of Kuo and colleagues was replicated, but phosphate-buffered saline pH 7.4 (PBS) was substituted as the extraction buffer, achieving similar results. Highly sensitive and specific anti-Aβ monoclonal antibodies (Ida et al., (1996)) were used to assay Aβ extraction by western blot. Next, the extraction of the same material with PBS was repeated in the presence of clioquinol and determined that the presence of clioquinol increased the amount of Aβ in the soluble extract several-fold (FIGS. 1, 2, 3A, and 3B).
Next, the ability of clioquinol to extract Aβ deposits from human brain was determined. […] Fragments of prefrontal cortex from individual post-mortem samples with the histopathological diagnosis of AD were homogenized in PBS, ph 7.4, and then pelleted after centrifugation.
The pellets were then washed with agitation twice for 30 minutes, 4° C., with PBS or PBS containing clioquinol (100% =0.8 μM clioquinol). The suspension was then pelleted (10,000 g for 30 minutes) and the supernatant removed (S1) for western blot analysis using Aβ-specific antibodies.
FIGS. 3A and 3B show the western blot and accompanying densitometric analysis of resolubilization of Aβ from AD-affected brain. […] Synthetic peptide standards that were used to calibrate densitometric quantification are shown in the two right-most lanes. […]

Aβ1-40 = Aβ1-40 (Homo sapiens, UniProt P05067); assay: Zn(II)-induced Aβ1-40 aggregation, supernatant protein by BCA assay; type: biochemical; settings: 20 mM HEPES, pH 7.4, 30 minutes at 37° C.
Method: Aβ1-40 was incubated with no metal, Zn (II), Zn (II) +clioquinol, DMSO or clioquinol (120 μM) in 20 mM HEPES, […], pH 7.4. Samples were incubated for 30 minutes at 37° C. and then centrifuged at 10,000 g for 20 minutes and the protein content of the supernatant determined using the BCA assay. Clioquinol was dissolved in DMSO prior to adding 20 μM to the samples. […] DMSO had no effect on Aβ aggregation. Results are mean ±SD, n=3.

[3] = chelation of zinc; cited from earlier work
[4] = rats and mice, within one hour of ingestion; cited from earlier work
[5] = cited from earlier work; for blood brain barrier passage: in vivo
[6] = cited from earlier work
[7] = rats, oral dose of 200 mg/kg; cited from earlier work
[8] = dogs, oral dose of 200 mg/kg; cited from earlier work
[9] = monkeys, oral dose of 500 mg/kg; cited from earlier work
[10] = cited from earlier work; remark: listed apart in the source
[11] = sustained treatment; cited from earlier work
[12] = with PBS at 1:1 mixture of n-decane; cited from earlier work

Sequence of Aβ 1-40 aggregates (P05067 672-711): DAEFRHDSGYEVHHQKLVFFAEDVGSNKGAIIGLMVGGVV
Sequence of Aβ1-40 (P05067 672-711 limits assumed): as the sequence (P05067 672-711) above

**Q.** For `Oc1c(I)cc(Cl)c2cccnc12` [clioquinol, 5-chloro-7-iodo-8-hydroxyquinoline], which “fraction of clioquinol dissolved in n-decane” value ([1]; 5.3 grams suspended in 200 milliliter n-decane) is on record?
**A.** Its value is 2%.

**Q.** And the “concentration of clioquinol in the PBS” value ([1]; PBS pH 7.4 after 1:1 extraction of n-decane supernatant)?
**A.** Its value is 800 nanamolar.

**Q.** And the “resolubilized Cu(II)-induced Aβ precipitate” value (Aβ 1-40 aggregates)?
**A.** The value was 85%.

**Q.** And the “resolubilized Zn(II)-induced Aβ precipitate” value (Aβ 1-40 aggregates)?
**A.** Its value is 50%.

**Q.** And the “resolubilized pH 5.5-induced Aβ precipitate” value (Aβ 1-40 aggregates)?
**A.** Its value is 10%.

**Q.** What about the “increase in solubilization of Aβ relative to PBS alone” value ([2]; 1.12 μM clioquinol, sequential extraction) of the same compound?
**A.** Its value is 2.5 fold.

**Q.** What about the “proportion of Aβ re-dissolved from post-mortem AD affected brain tissue” value ([2]; compared to buffer in the absence of chelators) of the same compound?
**A.** Its value is “up to 70%”.

**Q.** What about the “effect on Zn-induced Aβ1-40 aggregation” value (Aβ1-40) of the same compound?
**A.** Its value is “attenuated Zn-induced Aβ1-40 aggregation”.

**Q.** And the “K(Zn)” value [3]?
**A.** The value was 12.5.

**Q.** What about the blood levels [4] of the same compound?
**A.** Its blood levels is 1 to 10 µM.

**Q.** What about the “removal of a bolus dose from the brain” value ([5]; bolus dose) of the same compound?
**A.** Its value is “almost completely removed from the brain within three hours”.

**Q.** What about the “blood brain barrier passage” value [5] of the same compound?
**A.** The value was “freely permeable into the brain”.

**Q.** And the “blood brain barrier passage” value ([5]; listed as Clioquinol)?
**A.** The value was “crosses the blood brain barrier”.

**Q.** What about the general toxicity profile ([6]; in vivo) of the same compound?
**A.** Its general toxicity profile is “low general toxicity profile”.

**Q.** What about the “safety in mammalian species” value ([6]; many mammalian species, including rat and mouse) of the same compound?
**A.** Its value is “appears to be safe”.

**Q.** What about the plasma levels [7] of the same compound?
**A.** The plasma levels was 5 µM.

**Q.** What about the plasma levels [8] of the same compound?
**A.** Its plasma levels is 10 to 30 µM.

**Q.** And the plasma levels [9]?
**A.** Its plasma levels is 20 to 70 µM.

**Q.** And the excretion half life ([10]; in vivo)?
**A.** Its excretion half life is 1 to 3 h.

**Q.** What about the “time to reach peak plasma levels” value ([10]; oral ingestion) of the same compound?
**A.** Its value is ≤ 30 min.

**Q.** What about the “dose causing subacute myelo-optic neuritis” value [11] of the same compound?
**A.** Its value is 10 mg/kg/day.

**Q.** What about the partitioning coefficient [12] of the same compound?
**A.** The partitioning coefficient was 1/1750.
